Assay results published in US10280198B2, “Therapeutic agents for reducing parathyroid hormone levels” (KAI PHARMACEUTICALS, INC., priority 2009, dated 2019).
Where two headings read alike, the source gives them in different places. Square brackets hold non-standard residues; d marks the D form. Peptide text beside a SMILES is read from it. dNle = CCCC[C@@H](N)C(=O)O; dNva = CCC[C@@H](N)C(=O)O

Assays:
[1] = tested on: rat peritoneal mast cells; test: In vitro histamine induction in rat peritoneal mast cells; type: cell-based
Description: To further evaluate the relationship between compound structure and histamine release, a series of compounds was prepared and assessed for their ability to trigger induction of histamine in an in vitro assay using rat peritoneal mast cells. In this assay, compounds are incubated at 10 μM for 15 minutes at 37° C. with cells isolated from peritoneal lavage of SD rats. Following incubation, cell medium is collected and histamine is determined.
Accordingly, and as can be appreciated in view of the PTH data and the histamine data described hereinabove, in one embodiment, a compound that has activity to decrease PTH level in a subject in the absence of a histamine response is contemplated. In certain embodiments, absence of a histamine response intends a dose of the compound that produces a less than 10-fold, more preferably 8-fold, still more preferably 5-fold, and even still more preferably 3-fold, increase in histamine, measured in vitro in an assay as described herein, where the fold change is determined based on histamine levels before incubation with the compound and after 15 minutes incubation with compound. In a specific embodiment, the histamine response is determined in an in vitro assay using rat peritoneal mast cells isolated from peritoneal lavage of normal Sprague Dawley rats, and where the fold change is determined based on histamine levels before incubation with the compound and after 15 minutes incubation with compound. In the studies conducted herein, the in vitro evaluation of histamine release was performed using isolated rat peritoneal mast cells isolated by peritoneal lavage using cold HBSS+25 mM HEPES pH 7.4 containing heparin (5 u/mL). Cells were washed twice in stimulation buffer (HBSS+25 mM HEPES pH 7.4) and incubated with 10 μM of compound in stimulation buffer (HBSS+25 mM HEPES pH 7.4) for 15 minutes in a 96-well plate ([…]) at 37° C. Cell supernatant was analyzed for histamine using histamine EIA kit (Cayman #589651).
For in vitro evaluation of histamine release, isolated rat peritoneal mast cells were isolated by performing peritoneal lavage using cold HBSS+25 mM HEPES pH 7.4 containing heparin (5 u/mL). Cells were washed twice in stimulation buffer (HBSS+25 mM HEPES pH 7.4) and incubated with 10 μM of compound in stimulation buffer (HBSS+25 mM HEPES pH 7.4) for 15 minutes in a 96-well plate (10^6/well) at 37° C. Cell supernatant was analyzed for histamine using histamine EIA kit (Cayman #589651).

[2] = tested on: plasma PTH; test: In vivo PTH lowering after IV bolus in isoflurane-anesthetized normal Sprague Dawley rats; design: species or system rat; details: normal rats, AUC 1-4 h
Description: The peptides were administered intravenously at a dose of 0.5 mg/kg into isoflurane-anesthetized normal Sprague Dawley rats. A control group of rats was treated with saline. Blood was drawn prior to dosing and every hour for 4 hours. Rats were maintained under isoflurane anesthesia for the entire study. […] Percent PTH reduction was calculated according to the following formula: AUCcmpd treated/AUCsaline control*100.
An intravenous (IV) bolus of saline was used as a control. Plasma (K2EDTA) PTH levels were assessed prior to dosing and 1, 2, 3 and 4 hours after dosing. Rats were maintained under isoflurane anesthesia for the entire study. […] In FIG. 2B, PTH is shown as percent of the baseline pre-dose value.
A series of compounds having an L-amino acid residue substituted for a D-amino acid residue were prepared. The compounds were administered as an IV bolus to normal Sprague Dawley rats at a dose of 0.5 mg/kg. An intravenous (IV) bolus of saline was used as a control. […] Rats were maintained under isoflurane anesthesia for the entire study.

[3] = Table 9, 10 μM, 15 minutes, 37° C.

Row | Histamine in vitro Fold change of non-treated at 10 uM [1] [fold] | Compound | 0.5 mg/kg IV bolus % PTH AUC of saline control ([2]; Table 6) [%] | 0.5 mg/kg IV bolus % PTH AUC of saline control ([2]; Table 7) [%] | Histamine in vitro Fold change of non-treated at 10 uM [1, 3] [fold]
1 | 1.0 | CC(=O)N[C@H](CS)C(=O)N[C@H](C)C(=O)N[C@H](CCCNC(=N)N)C(=O)N[C@H](CCCNC(=N)N)C(=O)N[C@H](CCCNC(=N)N)C(=O)N1CCC[C@@H]1C(=O)N[C@H](CCCNC(=N)N)C(N)=O [SEQ ID NO: 88, Ac-carrrpr-NH2] (Ac-[dC][dA][dR][dR][dR][dP][dR]-NH2) | 76 |  | 
2 | 1.1 | CC(=O)N[C@H](CS)C(=O)N[C@@H](C(=O)N[C@H](CCCNC(=N)N)C(=O)N[C@H](CCCNC(=N)N)C(=O)N[C@H](CCCNC(=N)N)C(=O)N[C@H](C)C(=O)N[C@H](CCCNC(=N)N)C(N)=O)[C@H](C)O [SEQ ID NO: 100, Ac-ctrrrar-NH2] (Ac-[dC][dT][dR][dR][dR][dA][dR]-NH2) | 23 |  | 
3 | 2.0 | CC(=O)N[C@H](CS)C(=O)N[C@H](CCCNC(=N)N)C(=O)N[C@H](CCCNC(=N)N)C(=O)N[C@H](CO)C(=O)N[C@H](CCCNC(=N)N)C(=O)N[C@H](C)C(=O)N[C@H](CCCNC(=N)N)C(N)=O [SEQ ID NO: 111, Ac-crrsrar-NH2] (Ac-[dC][dR][dR][dS][dR][dA][dR]-NH2) | 4 |  | 
4 | 0.9 | CC(=O)N[C@H](CS)C(=O)N[C@H](C)C(=O)N[C@H](CCCNC(=N)N)C(=O)N[C@H](CCCNC(=N)N)C(=O)N[C@H](CCCNC(=N)N)C(=O)NCC(=O)N[C@H](CCCNC(=N)N)C(N)=O [SEQ ID NO: 93, Ac-carrrGr-NH2] (Ac-[dC][dA][dR][dR][dR]G[dR]-NH2) | 5 |  | 
5 | 1.1 | CCC[C@@H](NC(=O)[C@@H](CCCNC(=N)N)NC(=O)[C@@H](C)NC(=O)[C@@H](CCCNC(=N)N)NC(=O)[C@@H](CCCNC(=N)N)NC(=O)[C@@H](CS)NC(C)=O)C(=O)N[C@H](CCCNC(=N)N)C(N)=O [SEQ ID NO: 135, Ac-crrar-dNva-r-NH2] (Ac-[dC][dR][dR][dA][dR][dNva][dR]-NH2) |  | 8 | 
6 |  | CCC[C@@H](NC(=O)[C@@H](CCCNC(=N)N)NC(=O)[C@@H](CCCNC(=N)N)NC(=O)[C@@H](CCCNC(=N)N)NC(=O)[C@@H](CCC)NC(=O)[C@@H](CS)NC(C)=O)C(=O)N[C@H](CCCNC(=N)N)C(N)=O [SEQ ID NO: 132, Ac-c-dNva-rrr-dNva-r-NH2] (Ac-[dC][dNva][dR][dR][dR][dNva][dR]-NH2) |  | 27 | 4.1
7 | 1.2 | CC(=O)N[C@H](CS)C(=O)N[C@H](CCCNC(=N)N)C(=O)N[C@H](CCCNC(=N)N)C(=O)N[C@@H](C(=O)N[C@H](CCCNC(=N)N)C(=O)N[C@H](C)C(=O)N[C@H](CCCNC(=N)N)C(N)=O)[C@H](C)O [SEQ ID NO: 108, Ac-crrtrar-NH2] (Ac-[dC][dR][dR][dT][dR][dA][dR]-NH2) | 13 |  | 
8 |  | CC(=O)N[C@H](CS)C(=O)N[C@H](C)C(=O)N[C@H](CCCNC(=N)N)C(=O)N[C@H](CCCNC(=N)N)C(=O)N[C@H](CCCNC(=N)N)C(=O)N[C@H](CC(C)C)C(=O)N[C@H](CCCNC(=N)N)C(N)=O [SEQ ID NO: 85, Ac-carrrlr-NH2] (Ac-[dC][dA][dR][dR][dR][dL][dR]-NH2) | 140 |  | 2.5
9 | 0.9 | CC(=O)N[C@H](CS)C(=O)N[C@H](C)C(=O)N[C@H](CCCNC(=N)N)C(=O)N[C@H](CCCNC(=N)N)C(=O)N[C@H](CCCNC(=N)N)C(=O)N[C@H](CCC(N)=O)C(=O)N[C@H](CCCNC(=N)N)C(N)=O [SEQ ID NO: 90, Ac-carrrqr-NH2] (Ac-[dC][dA][dR][dR][dR][dQ][dR]-NH2) | 41 |  | 
10 | 2.3 | CC(=O)N[C@H](CS)C(=O)N[C@H](CCCNC(=N)N)C(=O)N[C@H](CCCNC(=N)N)C(=O)N[C@H](Cc1c[nH]cn1)C(=O)N[C@H](CCCNC(=N)N)C(=O)N[C@H](C)C(=O)N[C@H](CCCNC(=N)N)C(N)=O [SEQ ID NO: 109, Ac-crrhrar-NH2] (Ac-[dC][dR][dR][dH][dR][dA][dR]-NH2) | 9 |  | 
11 | 1.5 | CC(=O)N[C@H](CS)C(=O)NCC(=O)N[C@H](CCCNC(=N)N)C(=O)N[C@H](CCCNC(=N)N)C(=O)N[C@H](CCCNC(=N)N)C(=O)N[C@H](C)C(=O)N[C@H](CCCNC(=N)N)C(N)=O [SEQ ID NO: 95, Ac-cGrrrar-NH2] (Ac-[dC]G[dR][dR][dR][dA][dR]-NH2) | 45 |  | 
12 | 2.0 | CC(=O)N[C@H](CS)C(=O)N[C@H](C)C(=O)N[C@H](CCCNC(=N)N)C(=O)N[C@H](CCCNC(=N)N)C(=O)N[C@H](CCCNC(=N)N)C(=O)N[C@H](Cc1c[nH]cn1)C(=O)N[C@H](CCCNC(=N)N)C(N)=O [SEQ ID NO: 89, Ac-carrrhr-NH2] (Ac-[dC][dA][dR][dR][dR][dH][dR]-NH2) | 48 |  | 
13 | 2.2 | CC(=O)N[C@H](CS)C(=O)N[C@H](CC(C)C)C(=O)N[C@H](CCCNC(=N)N)C(=O)N[C@H](CCCNC(=N)N)C(=O)N[C@H](CCCNC(=N)N)C(=O)N[C@H](C)C(=O)N[C@H](CCCNC(=N)N)C(N)=O [SEQ ID NO: 98, Ac-clrrrar-NH2] (Ac-[dC][dL][dR][dR][dR][dA][dR]-NH2) | 26 |  | 
14 | 1.8 | CC[C@@H](C)[C@@H](NC(=O)[C@@H](CCCNC(=N)N)NC(=O)[C@@H](CCCNC(=N)N)NC(=O)[C@@H](CCCNC(=N)N)NC(=O)[C@@H](C)NC(=O)[C@@H](CS)NC(C)=O)C(=O)N[C@H](CCCNC(=N)N)C(N)=O [SEQ ID NO: 84, Ac-carrrir-NH2] (Ac-[dC][dA][dR][dR][dR][dI][dR]-NH2) | 161 |  | 
15 | 9.2 | CCCC[C@@H](NC(=O)[C@@H](CCCNC(=N)N)NC(=O)[C@@H](CCCNC(=N)N)NC(=O)[C@@H](CCCNC(=N)N)NC(=O)[C@@H](CCCC)NC(=O)[C@@H](CS)NC(C)=O)C(=O)N[C@H](CCCNC(=N)N)C(N)=O [SEQ ID NO: 130, Ac-c-dNle-rrr-dNle-r-NH2] (Ac-[dC][dNle][dR][dR][dR][dNle][dR]-NH2) |  | 54 | 
16 | 2.1 | CCC[C@@H](NC(=O)[C@@H](CS)NC(C)=O)C(=O)N[C@H](CCCNC(=N)N)C(=O)N[C@H](CCCNC(=N)N)C(=O)N[C@H](CCCNC(=N)N)C(=O)N[C@H](C)C(=O)N[C@H](CCCNC(=N)N)C(N)=O [SEQ ID NO: 136, Ac-c-dNva-rrrar-NH2] (Ac-[dC][dNva][dR][dR][dR][dA][dR]-NH2) |  | 7 | 
17 | 1.1 | CC(=O)N[C@H](CS)C(=O)N[C@H](CCCNC(=N)N)C(=O)N[C@H](CCCNC(=N)N)C(=O)N1CCC[C@@H]1C(=O)N[C@H](CCCNC(=N)N)C(=O)N[C@H](C)C(=O)N[C@H](CCCNC(=N)N)C(N)=O [SEQ ID NO: 106, Ac-crrprar-NH2] (Ac-[dC][dR][dR][dP][dR][dA][dR]-NH2) | 68 |  | 
18 | 1.8 | CC(=O)N[C@H](CS)C(=O)N[C@H](CCCNC(=N)N)C(=O)N[C@H](CCCNC(=N)N)C(=O)NCC(=O)N[C@H](CCCNC(=N)N)C(=O)N[C@H](C)C(=O)N[C@H](CCCNC(=N)N)C(N)=O [SEQ ID NO: 105, Ac-crrGrar-NH2] (Ac-[dC][dR][dR]G[dR][dA][dR]-NH2) | 69 |  | 
